Results as given in ChEMBL document CHEMBL1201862, “PubChem BioAssay data set” (2004).
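The compound was tested at five concentrations on cells cultured in 96-well plates, with a 48-hour exposure period. Abbreviation: GI50, concentration required for 50% inhibition of growth.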 Active and inactive are the calls of the source. No stated cut-off is given here; in the data, active = GI50 up to about 1.1 µM and inactive = higher.

Key:
Experiment in all cases: growth of human tumour cells (NCI), 48 h
A498 = system: A498
A549 = system: A549
BT-549 = system: BT-549
CAKI-1 = system: CAKI-1
EKVX = system: EKVX
HOP-62 = system: HOP-62
IGROV-1 = system: IGROV-1
MDA-MB-435 = system: MDA-MB-435
MOLT-4 = system: MOLT-4
NCI/ADR-RES = system: NCI/ADR-RES
RPMI-8226 = system: RPMI-8226
SK-MEL-2 = system: SK-MEL-2
SK-OV-3 = system: SK-OV-3
SNB-75 = system: SNB-75
UACC-257 = system: UACC-257
UACC-62 = system: UACC-62
UO-31 = system: UO-31
OVCAR-4 = system: OVCAR-4
U-251 = system: U-251

Measured: GI50

CSCSSC
active: A498 0.0231 µM
inactive: A549 > 100 µM | BT-549 > 100 µM | CAKI-1 > 21.6 µM | EKVX > 100 µM | HOP-62 > 100 µM | IGROV-1 > 79.6 µM | MDA-MB-435 > 78 µM | MOLT-4 4.67 µM | NCI/ADR-RES > 100 µM | RPMI-8226 56.5 µM | SK-MEL-2 > 35.5 µM | SK-OV-3 74.6 µM | SNB-75 52.1 µM | UACC-257 > 100 µM | UACC-62 61.7 µM | UO-31 > 100 µM

CC(C)=CCN1c2ccccc2[C@@]2(CC=C(C)C)CCN(C)[C@@H]12 [(+)-DEBROMOFLUSTRAMINE B]
inactive: A549 36.1 µM | BT-549 21.9 µM | CAKI-1 26.8 µM | EKVX 21.2 µM | HOP-62 19.2 µM | IGROV-1 21.6 µM | MDA-MB-435 21.1 µM | MOLT-4 25.6 µM | NCI/ADR-RES 18.3 µM | OVCAR-4 35.6 µM | RPMI-8226 21.6 µM | SK-MEL-2 14 µM | SK-OV-3 24.4 µM | SNB-75 26.1 µM | U-251 18.2 µM | UACC-257 > 10 µM | UACC-62 15.7 µM | UO-31 14.8 µM

O=C1CCCCCCCCCCC1CN1CCCC1 (stereo unspecified)
inactive: A498 19.4 µM | A549 43.6 µM | BT-549 31.4 µM | CAKI-1 43.1 µM | HOP-62 17.1 µM | IGROV-1 46 µM | MDA-MB-435 36.1 µM | MOLT-4 39.4 µM | NCI/ADR-RES 40 µM | RPMI-8226 > 100 µM | SK-MEL-2 17.9 µM | SK-OV-3 50.9 µM | SNB-75 32.9 µM | U-251 26.7 µM | UACC-257 20 µM | UACC-62 17.1 µM | UO-31 35.1 µM

CCCCCCCCCCC(C(=O)O)C1(C(=O)O)CCC(=O)O1 (stereo unspecified)
inactive: A549 > 100 µM | BT-549 > 100 µM | CAKI-1 > 100 µM | EKVX > 100 µM | HOP-62 > 100 µM | IGROV-1 > 100 µM | MDA-MB-435 > 100 µM | MOLT-4 > 100 µM | NCI/ADR-RES > 100 µM | OVCAR-4 43.2 µM | RPMI-8226 > 100 µM | SK-MEL-2 > 100 µM | SK-OV-3 > 100 µM | SNB-75 > 100 µM | U-251 > 100 µM | UACC-257 > 100 µM | UACC-62 > 100 µM | UO-31 > 100 µM

CCN(CC)C1=Nc2ccccc2-n2ccnc2C1
inactive: A498 > 100 µM | A549 > 100 µM | BT-549 > 100 µM | CAKI-1 > 100 µM | EKVX > 100 µM | HOP-62 > 100 µM | IGROV-1 > 100 µM | MDA-MB-435 > 100 µM | MOLT-4 > 100 µM | NCI/ADR-RES > 100 µM | OVCAR-4 > 100 µM | SK-MEL-2 > 100 µM | SNB-75 70.5 µM | U-251 > 100 µM | UACC-257 > 100 µM | UACC-62 > 100 µM | UO-31 > 100 µM

Cc1cc(S(=O)(=O)N/C(=N/N)NCCc2ccccc2)c(S)cc1Cl
inactive: A549 36.1 µM | BT-549 15.4 µM | CAKI-1 26.4 µM | EKVX 34.8 µM | HOP-62 > 10 µM | IGROV-1 36 µM | MDA-MB-435 22 µM | MOLT-4 17.7 µM | NCI/ADR-RES 22.9 µM | OVCAR-4 22.9 µM | RPMI-8226 32.7 µM | SK-MEL-2 38.2 µM | SK-OV-3 23.3 µM | SNB-75 25.6 µM | U-251 16.6 µM | UACC-257 44.4 µM | UACC-62 18.1 µM | UO-31 27.6 µM

CC(C)CCNC(=O)C(CC(C)C)NC(=O)[C@H]1O[C@@H]1C(=O)O (stereo partly specified)
inactive: A498 > 100 µM | A549 > 100 µM | BT-549 > 100 µM | CAKI-1 > 100 µM | EKVX > 100 µM | HOP-62 > 100 µM | IGROV-1 > 100 µM | MDA-MB-435 > 100 µM | MOLT-4 > 100 µM | NCI/ADR-RES > 100 µM | OVCAR-4 > 100 µM | SK-OV-3 > 100 µM | SNB-75 > 100 µM | U-251 > 100 µM | UACC-257 > 100 µM | UACC-62 > 100 µM | UO-31 > 100 µM

O=C(N/N=C/c1ccc(Cl)cc1)c1c(Cl)c(Cl)c(Cl)c(Cl)c1-c1nc2ccccc2[nH]1
inactive: A498 98.2 µM | A549 > 100 µM | BT-549 > 100 µM | CAKI-1 46.2 µM | EKVX 16.9 µM | IGROV-1 59.3 µM | MDA-MB-435 74.3 µM | MOLT-4 40.2 µM | NCI/ADR-RES > 100 µM | RPMI-8226 22.2 µM | SK-MEL-2 93.1 µM | SNB-75 > 100 µM | UACC-62 80.9 µM | UO-31 86.9 µM
active: HOP-62 0.0452 µM | SK-OV-3 0.0454 µM

CC(C)=Cc1cc(CCC/C(C)=C/Cc2c(O)cc(C)c(C(=O)O)c2O)co1
inactive: A549 > 100 µM | BT-549 > 100 µM | CAKI-1 > 100 µM | EKVX > 100 µM | HOP-62 > 100 µM | IGROV-1 > 100 µM | MDA-MB-435 > 100 µM | NCI/ADR-RES > 100 µM | OVCAR-4 > 100 µM | RPMI-8226 26.1 µM | SK-MEL-2 > 100 µM | SNB-75 > 100 µM | U-251 > 100 µM | UACC-257 > 100 µM | UACC-62 > 100 µM | UO-31 > 100 µM

Cc1cc(C)n(C2=NS(=O)(=O)c3ccccc3N2C)n1
inactive: A498 > 100 µM | A549 > 100 µM | BT-549 > 100 µM | CAKI-1 > 100 µM | EKVX > 100 µM | HOP-62 > 100 µM | IGROV-1 > 100 µM | MDA-MB-435 > 100 µM | MOLT-4 > 100 µM | NCI/ADR-RES > 100 µM | OVCAR-4 > 100 µM | SK-MEL-2 > 100 µM | SK-OV-3 > 100 µM | U-251 > 100 µM | UACC-257 > 100 µM | UACC-62 > 100 µM | UO-31 > 100 µM

Cc1ccc(-c2cc(-c3ccc(Cl)cc3)nc(/N=C3\C(=O)N(CN4CCCCC4)c4ccc(Cl)cc43)n2)cc1
inactive: A498 18.8 µM | A549 16.4 µM | BT-549 22.4 µM | CAKI-1 18.1 µM | EKVX 77.8 µM | HOP-62 26.3 µM | IGROV-1 10.5 µM | MDA-MB-435 20.3 µM | MOLT-4 11.7 µM | NCI/ADR-RES 22.1 µM | OVCAR-4 31.5 µM | SK-MEL-2 18.2 µM | SK-OV-3 31.8 µM | SNB-75 42.9 µM | U-251 24 µM | UACC-257 22.9 µM | UACC-62 23 µM

Cc1ccc(-c2n[nH]c(CC#N)n2)cc1
inactive: A498 > 100 µM | A549 > 100 µM | BT-549 > 100 µM | CAKI-1 > 100 µM | EKVX 8.57 µM | HOP-62 > 100 µM | IGROV-1 > 100 µM | MDA-MB-435 > 100 µM | MOLT-4 > 100 µM | NCI/ADR-RES > 100 µM | OVCAR-4 > 100 µM | SK-MEL-2 > 100 µM | SK-OV-3 > 100 µM | SNB-75 > 100 µM | U-251 > 100 µM | UACC-257 > 100 µM | UACC-62 > 100 µM | UO-31 > 100 µM
